Measured values reported in the NIST ThermoML archive (doi:10.1021/je049788h).

Test: xn = mol fraction of the nth substance listed
Conditions: 101.3 kPa, Liquid; for viscosity: Capillary tube (Ostwald / Ubbelohde) method; for mass density: Vibrating tube method

COCCOCCOCCOCCOC [2,5,8,11,14-pentaoxapentadecane] + O
Conditions	mass density, 298.15 K [kg/m3]	mass density, 313.15 K [kg/m3]	mass density, 323.15 K [kg/m3]	mass density, 333.15 K [kg/m3]	mass density, 343.15 K [kg/m3]	viscosity, 298.15 K [mPa·s]	viscosity, 313.15 K [mPa·s]	viscosity, 323.15 K [mPa·s]	viscosity, 333.15 K [mPa·s]	viscosity, 343.15 K [mPa·s]
x1 = 0.0199	1013.95	1006.73	1001.25	995.13	988.58	3.11	2.11	1.71	1.41	1.18
x1 = 0.051	1020.21	1011.89	1005.7	999.35	991.92	4.04	2.64	2.12	1.69	1.41
x1 = 0.1066	1038.9	1025.7	1016.67	1007.47	998.09	6.17	3.62	2.7	2.08	1.67
x1 = 0.195	1033.66	1019.8	1010.4	1000.92	991.28	6.22	3.77	2.86	2.24	1.8
x1 = 0.3008	1026.07	1012.12	1002.75	993.27	983.67	5.29	3.39	2.63	2.12	1.73
x1 = 0.4088	1020.42	1006.46	997.07	987.6	978.07	4.59	3.08	2.42	1.97	1.65
x1 = 0.5116	1016.56	1002.6	993.21	983.77	974.27	4.14	2.82	2.26	1.86	1.56
x1 = 0.6252	1013.52	999.55	990.2	980.79	971.34	3.81	2.65	2.15	1.78	1.51
x1 = 0.7016	1011.64	997.66	988.33	978.95	969.56	3.65	2.57	2.1	1.75	1.5
x1 = 0.8037	1009.81	995.86	985.65	977.24	967.88	3.51	2.49	2.06	1.73	1.47
x1 = 0.9044	1008.44	994.51	985.23	975.95	966.66	3.41	2.44	2.01	1.69	1.45
x1 = 0.9505	1007.83	993.92	984.67	975.4	966.13	3.37	2.42	2.002	1.69	1.41
x1 = 1	1006.65	993.28	984.05	974.8	965.55	3.38	2.42	2.004	1.69	1.42
